Reference: US9505749B2, “Quinazolinone compounds and derivatives thereof” (AMGEN INC., priority 2012, dated 2016)
Like-named read-outs stand apart in the source and are kept apart here.

How the values were obtained:
[1] = system: total β-catenin in SW480 colorectal cells; experiment: Total β-catenin MSD 96-well plate assay for SW480 cells; conditions: Homo sapiens, SW480, read-out: SW480-Total beta-catenin (TBC) IC50 IP
[2] = biological target: 6×HIS-tankyrase1 (1091-1325) (Homo sapiens (Human), UniProt O95271); experiment: Tankyrase 1 biochemical assay (AlphaLisa, PARsylation); conditions: read-out: TNKS1 IC50
[3] = biological target: PARP1 (Homo sapiens (Human), UniProt P09874); experiment: PARP1 biochemical assay (Trevigen kit)
From the text: PARP1 biochemical assay was purchased as a kit from Trevigen (cat.#4676-096-K) and used per manufacturers recommendations.

[4] = biological target: 6×HIS-tankyrase 2 (946-1162) (Homo sapiens (Human), UniProt Q9H2K2); experiment: Tankyrase 2 biochemical assay (AlphaLisa, PARsylation); conditions: 250 nM NAD; read-out: TNKS2 IC50
[5] = biological target: PARP2 (Homo sapiens (Human), UniProt Q9UGN5); experiment: PARP2 biochemical assay (BPS kit)
[6] = system: Axin2 accumulation in SW480 cells; experiment: Axin2 384 immunofluorescence assay; assay type: cell-based; conditions: Homo sapiens, read-out: Axin2 384 IF EC50

PARP2, sequence (Q9UGN5 whole entry): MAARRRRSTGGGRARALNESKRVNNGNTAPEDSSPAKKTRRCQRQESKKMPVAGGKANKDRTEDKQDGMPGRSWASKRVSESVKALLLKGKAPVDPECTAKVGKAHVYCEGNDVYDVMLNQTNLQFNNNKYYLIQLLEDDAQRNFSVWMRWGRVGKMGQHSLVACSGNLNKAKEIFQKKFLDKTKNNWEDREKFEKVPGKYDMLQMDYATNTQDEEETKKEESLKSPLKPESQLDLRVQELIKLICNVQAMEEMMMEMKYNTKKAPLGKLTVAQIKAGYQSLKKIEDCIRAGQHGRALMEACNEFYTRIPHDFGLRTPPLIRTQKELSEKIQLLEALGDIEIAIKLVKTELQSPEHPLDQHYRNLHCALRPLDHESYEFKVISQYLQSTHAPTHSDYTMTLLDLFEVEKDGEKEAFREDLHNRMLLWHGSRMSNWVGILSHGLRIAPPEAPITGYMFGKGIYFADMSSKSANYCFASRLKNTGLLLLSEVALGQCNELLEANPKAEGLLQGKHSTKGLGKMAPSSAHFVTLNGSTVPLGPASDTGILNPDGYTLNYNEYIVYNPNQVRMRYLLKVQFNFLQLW
6×HIS-tankyrase1 (1091-1325), sequence (O95271 1091-1325): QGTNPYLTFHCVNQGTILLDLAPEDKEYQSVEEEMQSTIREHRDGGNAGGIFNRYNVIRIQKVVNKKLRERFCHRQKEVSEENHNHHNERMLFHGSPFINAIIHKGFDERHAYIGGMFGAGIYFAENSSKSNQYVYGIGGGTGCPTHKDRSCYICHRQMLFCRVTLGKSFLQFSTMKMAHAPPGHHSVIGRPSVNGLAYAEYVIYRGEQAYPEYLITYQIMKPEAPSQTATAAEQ
PARP1, sequence (P09874 whole entry): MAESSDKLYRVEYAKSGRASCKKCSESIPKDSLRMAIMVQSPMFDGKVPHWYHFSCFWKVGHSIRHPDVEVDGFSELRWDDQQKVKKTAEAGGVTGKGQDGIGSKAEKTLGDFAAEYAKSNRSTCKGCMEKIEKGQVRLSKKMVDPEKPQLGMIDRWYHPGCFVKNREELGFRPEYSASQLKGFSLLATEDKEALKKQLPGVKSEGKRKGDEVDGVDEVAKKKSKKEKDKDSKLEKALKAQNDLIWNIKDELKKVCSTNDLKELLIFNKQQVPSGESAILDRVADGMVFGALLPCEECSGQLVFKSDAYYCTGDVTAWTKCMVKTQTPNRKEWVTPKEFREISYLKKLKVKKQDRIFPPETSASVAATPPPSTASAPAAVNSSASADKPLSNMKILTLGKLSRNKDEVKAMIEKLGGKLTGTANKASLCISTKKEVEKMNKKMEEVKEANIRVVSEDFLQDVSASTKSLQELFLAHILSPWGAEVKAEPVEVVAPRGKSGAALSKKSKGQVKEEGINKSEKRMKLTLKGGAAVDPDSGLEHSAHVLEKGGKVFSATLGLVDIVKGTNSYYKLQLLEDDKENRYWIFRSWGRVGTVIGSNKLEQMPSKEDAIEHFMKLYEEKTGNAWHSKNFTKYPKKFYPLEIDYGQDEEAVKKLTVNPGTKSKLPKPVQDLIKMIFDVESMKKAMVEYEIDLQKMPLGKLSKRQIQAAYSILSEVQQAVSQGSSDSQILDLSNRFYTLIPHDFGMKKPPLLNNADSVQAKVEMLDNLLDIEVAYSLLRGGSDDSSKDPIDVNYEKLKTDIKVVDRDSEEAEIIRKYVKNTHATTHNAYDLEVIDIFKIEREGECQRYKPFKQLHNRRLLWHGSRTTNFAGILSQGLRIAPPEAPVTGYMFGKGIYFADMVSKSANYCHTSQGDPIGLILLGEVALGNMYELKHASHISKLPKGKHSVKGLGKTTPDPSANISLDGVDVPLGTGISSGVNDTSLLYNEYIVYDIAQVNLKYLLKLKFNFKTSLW
6×HIS-tankyrase 2 (946-1162), sequence (Q9H2K2 946-1162): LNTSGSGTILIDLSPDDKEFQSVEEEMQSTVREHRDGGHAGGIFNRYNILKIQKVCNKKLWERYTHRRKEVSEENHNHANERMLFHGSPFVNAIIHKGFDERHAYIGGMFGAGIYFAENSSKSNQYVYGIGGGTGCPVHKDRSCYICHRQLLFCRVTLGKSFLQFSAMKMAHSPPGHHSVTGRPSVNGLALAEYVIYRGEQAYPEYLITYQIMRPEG

Row | Compound | IC50 [1] [nM] | IC50 ([2]; 400 nM NAD, 60 minutes at RT) [nM] | IC50 [3] [nM] | IC50 [4] [nM] | IC50 [5] [nM] | EC50 ([6]; SW480 cells, 24 hours) [nM] | IC50 [2] [nM] | EC50 ([6]; SW480, 24 h) [nM]
1 | O=C(CCCc1nc2ccccc2c(=O)[nH]1)N[C@H]1CC[C@H](OCc2ccccc2)C1 (stereo in doubt) [Example 62, N-((1R,3R)-3-(benzyloxy)cyclopentyl)-4-(4-oxo-3,4-dihydroquinazolin-2-yl)butanamide+N-((1S,3S)-3-(benzyloxy)cyclopentyl)-4-(4-oxo-3,4-dihydroquinazolin-2-yl)butanamide] | > 10000 | 587 | 7680 | 138 | 2840 | – | – | –
2 | O=C(CSc1nc2ccccc2c(=O)[nH]1)N[C@H]1CC[C@H](n2c(=O)[nH]c3cc(Cl)ccc32)CC1 [Example 87, N-((1r,4r)-4-(5-chloro-2-oxo-2,3-dihydro-1H-benzo[d]imidazol-1-yl)cyclohexyl)-2-((4-oxo-3,4-dihydroquinazolin-2-yl)thio)acetamide] | 7.27 | 0.0597 | > 85000 | 2.52 | – | 25.8 | – | –
3 | O=C(CCCc1nc2ccccc2c(=O)[nH]1)N1CCC(N2C(=O)C(F)(F)c3ccccc32)CC1 [Example 60, 2-(4-(4-(3,3-difluoro-2-oxo-2,3-dihydro-1H-indol-1-yl)-1-piperidinyl)-4-oxobutyl)-4(3H)-quinazolinone] | – | – | 4530 | 28.9 | – | – | 46 | 2410
4 | O=C(CCc1nc2ccccc2c(=O)[nH]1)N[C@H]1CC[C@H](n2c(=O)[nH]c3ccccc32)CC1 [Example 84, N-(trans-4-(2-oxo-2,3-dihydro-1H-benzo[d]imidazol-1-yl)cyclohexyl)-3-(4-oxo-3,4-dihydroquinazolin-2-yl)propanamide] | 433 | 1.44 | – | 0.671 | 1030 | 1780 | – | –
5 | O=C(CCSc1nc2ccccc2c(=O)[nH]1)N[C@H]1CC[C@H](c2nnc(-c3cccc(Cl)c3)o2)CC1 [Example 118, N-((1r,4r)-4-(5-(3-chlorophenyl)-1,3,4-oxadiazol-2-yl)cyclohexyl)-3-((4-oxo-3,4-dihydroquinazolin-2-yl)thio)propanamide] | 1.2 | 0.107 | – | 4.98 | 3280 | 3.34 | – | –

Continued by falling IC50 [1], values first:

Row | IC50 [1] [nM] | IC50 ([2]; 400 nM NAD, 60 minutes at RT) [nM] | IC50 [3] [nM] | IC50 [4] [nM] | IC50 [5] [nM] | EC50 ([6]; SW480 cells, 24 hours) [nM] | Compound | IC50 [2] [nM] | EC50 ([6]; SW480, 24 h) [nM]
6 | 1360 | 17.7 | 2050 | 4.01 | – | 4780 | O=C(CCCc1nc2ccccc2c(=O)[nH]1)N1CC=C(n2c(=O)[nH]c3ccccc32)CC1 [Example 46, 2-(4-oxo-4-(4-(2-oxo-2,3-dihydro-1H-benzimidazol-1-yl)-3,6-dihydro-1(2H)-pyridinyl)butyl)-4(3H)-quinazolinone trifluoroacetic acid] | – | –
7 | 349 | 4.78 | > 85000 | 5.46 | > 170000 | – | O=C(CCSc1cc(=O)n2ccccc2n1)N[C@H]1CC[C@H](c2nnc(-c3ccccc3)o2)CC1 [Example 144, 3-((4-oxo-4H-pyrido[1,2-a]pyrimidin-2-yl)sulfanyl)-N-(trans-4-(5-phenyl-1,3,4-oxadiazol-2-yl)cyclohexyl)propanamide] | – | –
8 | 138 | 0.129 | – | 9.92 | 2280 | 198 | N#Cc1ccc2c(c1)[nH]c(=O)n2[C@H]1CC[C@H](NC(=O)CSc2nc3ccccc3c(=O)[nH]2)CC1 [Example 103, N-((1r,4r)-4-(5-cyano-2-oxo-2,3-dihydro-1H-benzo[d]imidazol-1-yl)cyclohexyl)-2-((4-oxo-3,4-dihydroquinazolin-2-yl)thio)acetamide] | – | –
9 | 32.6 | 1.01 | – | 0.347 | 279 | 207 | O=C(CCc1nc2ccccc2c(=O)[nH]1)N[C@H]1CC[C@H](n2c(=O)[nH]c3ccc(Cl)cc32)CC1 [Example 86, N-((1r,4r)-4-(6-chloro-2-oxo-2,3-dihydro-1H-benzo[d]imidazol-1-yl)cyclohexyl)-3-(4-oxo-3,4-dihydroquinazolin-2-yl)propanamide] | – | –
